According to patent publication US6613879B1, “FAP-activated anti-tumour compounds” (Boehringer Ingelheim Pharma KG, priority 1999, dated 2003):
Residues, ends and D or L forms follow the SMILES beside them. *: point of attachment. NH(4-MeO-2-naphthyl) = COc1cc(N*)cc2ccccc12; AFC = O=c1cc(C(F)(F)F)c2ccc(N*)cc2o1; Cbz = O=C(OCc1ccccc1)*

Assays:
[1] = biological target: T1, FAPα enzyme derived from membrane extracts of the 293-I/2 transfected cells (Homo sapiens, UniProt Q12884); assay: FAPα-catalyzed cleavage of 4-methoxy-β-napthylamide (MNA)-peptide conjugates, enzyme kinetics; assay type: biochemical; details: release of free MNA, fluorimeter 355 nm/405 nm
T1 construct: made in house; host or cells: human embryonic kidney 293 cells, clone 293-I/2, membrane extract
T1 sequence (Q12884 1-760): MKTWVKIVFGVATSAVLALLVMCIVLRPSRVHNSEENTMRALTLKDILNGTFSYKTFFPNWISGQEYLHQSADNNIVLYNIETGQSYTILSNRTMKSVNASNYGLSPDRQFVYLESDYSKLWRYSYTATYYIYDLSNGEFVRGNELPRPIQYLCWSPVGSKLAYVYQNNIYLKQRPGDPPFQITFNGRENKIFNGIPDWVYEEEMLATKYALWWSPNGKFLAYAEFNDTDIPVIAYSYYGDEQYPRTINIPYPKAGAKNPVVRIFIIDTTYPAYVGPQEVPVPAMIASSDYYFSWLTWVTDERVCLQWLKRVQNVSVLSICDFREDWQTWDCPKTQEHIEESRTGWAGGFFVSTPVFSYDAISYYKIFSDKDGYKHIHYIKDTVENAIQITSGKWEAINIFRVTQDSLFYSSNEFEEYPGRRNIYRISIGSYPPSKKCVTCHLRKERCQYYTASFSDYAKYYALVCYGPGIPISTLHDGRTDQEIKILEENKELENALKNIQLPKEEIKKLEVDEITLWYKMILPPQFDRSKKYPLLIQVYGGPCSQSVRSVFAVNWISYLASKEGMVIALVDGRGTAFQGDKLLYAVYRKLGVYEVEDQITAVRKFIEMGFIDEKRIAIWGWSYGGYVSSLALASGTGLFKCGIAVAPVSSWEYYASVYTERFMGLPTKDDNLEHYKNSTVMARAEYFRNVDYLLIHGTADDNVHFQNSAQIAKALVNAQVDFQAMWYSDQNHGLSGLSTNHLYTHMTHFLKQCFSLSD
Protocol: (§1) Release of free MNA from the peptides was then measured in a Cytofluor fluorimeter (Per-Septive Biosystems, Inc.) using the 355 nm excitation/405 nm emission filter set.

[2] = biological target: T2, FAPα dimers (Homo sapiens, UniProt Q12884); details: membrane overlay assay; cited from earlier work
T2 sequence (Q12884 1-760): T1 sequence (Q12884 1-760)

[3] = biological target: T3, soluble recombinant FAPα (FAPmCD8 fusion protein) (UniProt P01731+Q12884); assay: Cleavage of doxorubicin-peptide conjugates by soluble recombinant FAPα (HPLC release of free doxorubicin); assay type: biochemical, human; details: for Cleavage by FAP: after 20 h
T3 construct: the extracellular domain of FAPα (amino acids 27 to 760), generating a fusion protein construct, FAPmCD8; extracellular domain of murine CD8α (Genbank M12825), N-terminal 189 amino acids (N); made in house; host or cells: High Five insect cells, recombinant baculovirus (pVL1393; amplified in Sf9)
T3 sequence (P01731+Q12884 fused): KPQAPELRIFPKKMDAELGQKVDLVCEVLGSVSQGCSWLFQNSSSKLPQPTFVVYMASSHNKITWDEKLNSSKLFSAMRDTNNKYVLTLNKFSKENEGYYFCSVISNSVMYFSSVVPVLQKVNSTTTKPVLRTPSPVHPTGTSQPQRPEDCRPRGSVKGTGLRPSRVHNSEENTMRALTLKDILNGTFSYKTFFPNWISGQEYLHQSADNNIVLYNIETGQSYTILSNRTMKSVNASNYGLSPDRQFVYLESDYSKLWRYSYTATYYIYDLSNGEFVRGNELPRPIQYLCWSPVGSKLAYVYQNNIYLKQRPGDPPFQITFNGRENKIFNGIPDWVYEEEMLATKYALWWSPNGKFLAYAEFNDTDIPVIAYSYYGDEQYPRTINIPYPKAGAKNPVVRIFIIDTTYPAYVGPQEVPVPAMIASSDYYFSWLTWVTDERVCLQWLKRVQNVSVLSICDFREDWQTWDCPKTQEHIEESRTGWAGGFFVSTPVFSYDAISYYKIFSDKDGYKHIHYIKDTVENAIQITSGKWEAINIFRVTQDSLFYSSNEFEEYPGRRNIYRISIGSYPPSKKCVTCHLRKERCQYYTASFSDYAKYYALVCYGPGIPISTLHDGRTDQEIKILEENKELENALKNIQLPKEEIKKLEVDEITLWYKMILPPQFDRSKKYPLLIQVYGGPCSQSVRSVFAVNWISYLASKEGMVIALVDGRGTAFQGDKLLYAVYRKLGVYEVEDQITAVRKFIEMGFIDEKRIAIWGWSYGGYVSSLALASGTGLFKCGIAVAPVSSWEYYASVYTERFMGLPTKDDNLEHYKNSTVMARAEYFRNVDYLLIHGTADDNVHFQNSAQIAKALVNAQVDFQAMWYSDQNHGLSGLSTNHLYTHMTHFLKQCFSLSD
Protocol: A soluble recombinant form of FAPα protein was prepared as follows. […] The cDNAs were verified by sequencing and inserted into the pVL1393 vector. […] The culture supernatant of High Five cells infected with recombinant FAPmCD8 baculovirus for four days was collected and cleared by ultracentrifugation. FAPmCD8 fusion protein was purified from such supernatants using an anti-FAPα monoclonal antibody immobilized on activated agarose beads (Pierce Chemical, Indianapolis, Ind., USA). […] The samples were immediately neutralized with a saturated Tris solution (Sigma Chemicals, St. Louis, Mo.) and protein-containing fractions were pooled.
Doxorubicin-peptide conjugate stock solutions (5 mM) were diluted with Hepes-buffered saline pH 7.4 to a final concentration of 50 to 100 μM. Twenty μl of the resulting solution was mixed with 50 μl of purified FAPmCD8 fusion protein (approximately 20 ng) described above and 30 μl Hepes-buffered saline, pH 7.4. The mixture was allowed to incubate at 37° C. for 1 day and release of free doxorubicin was measured in the HPLC assay described. Areas under each peak were quantified using the software package above and the initial value was set to 100%. The rate of release of free doxorubicin was measured by the appearance of a peak with the same retention time as free doxorubicin under these HPLC conditions. The areas under each peak were used to calculate the relative amounts of free doxorubicin to doxorubicin-peptide conjugate.

[4] = system: parental HT1080 cell line; details: 1 μM conjugate, serum-free medium, 19 hours at 37° C.
Protocol: (§2) Mammalian cell lines expressing recombinant FAPα were prepared. HT1080 fibrosarcoma cells, widely known and available from the DSMZ (German Collection of Microorganisms and Cell Cultures, Braunschweig, Germany) under the accession number DSMZ ACC 315, were maintained in a DMEM/F12 mix 50:50 containing 10% fetal bovine serum in an atmosphere of 95% air and 5% CO2. HT1080 cells were transfected with FAP.38 vector (WO 97/34927, Scanlan et al., loc. cit.) using the Lipofectin method according to the manufacturer's instructions (Gibco/BRL). Transfectants were selected for resistance to antibiotics (200 μg/ml Geneticin) and thereafter maintained in medium containing Geneticin. Individual colonies of resistant cells were picked, grown to confluence in 10 cm tissue culture petri dishes and tested for FAPα expression in an immunofluorescence assay using the FAPα-specific monoclonal antibody F19, as described (Garin-Chesa et al. (1990) Proc. Natl. Acad. Sci. USA 87(18), 7235-7239).
(§3) Samples were separated by reversed-phase high performance liquid chromatographic (HPLC) assay that was established to measure cleavage of doxorubicin-peptide conjugates. […] Free doxorubicin and doxorubicin-peptide conjugates were detected by fluorescence (excitation, 475 nm; emission, 585 nm) using a Waters 474 fluorescence detector. […]

[5] = biological target: T4, cell-bound FAPα (FAP-expressing cell line HT1080 clone 33) (Homo sapiens, UniProt Q12884); assay: Release of free doxorubicin by cell-bound FAPα, HT1080 clone 33 cells; assay type: cell-based; details: 1 μM conjugate, serum-free medium, 19 hours at 37° C.
T4 construct: expressed in transfected cells; host or cells: HT1080 fibrosarcoma cells, clone 33
T4 sequence (Q12884 1-760): T1 sequence (Q12884 1-760)
Protocol: as §2, §3

[6] = biological target: DPP-IV (Homo sapiens, UniProt P27487); assay: Cleavage specificity of MNA-peptide conjugates, DPP-IV; assay type: biochemical; details: release of free MNA
Chain of DPP-IV (P27487 whole entry, species assumed): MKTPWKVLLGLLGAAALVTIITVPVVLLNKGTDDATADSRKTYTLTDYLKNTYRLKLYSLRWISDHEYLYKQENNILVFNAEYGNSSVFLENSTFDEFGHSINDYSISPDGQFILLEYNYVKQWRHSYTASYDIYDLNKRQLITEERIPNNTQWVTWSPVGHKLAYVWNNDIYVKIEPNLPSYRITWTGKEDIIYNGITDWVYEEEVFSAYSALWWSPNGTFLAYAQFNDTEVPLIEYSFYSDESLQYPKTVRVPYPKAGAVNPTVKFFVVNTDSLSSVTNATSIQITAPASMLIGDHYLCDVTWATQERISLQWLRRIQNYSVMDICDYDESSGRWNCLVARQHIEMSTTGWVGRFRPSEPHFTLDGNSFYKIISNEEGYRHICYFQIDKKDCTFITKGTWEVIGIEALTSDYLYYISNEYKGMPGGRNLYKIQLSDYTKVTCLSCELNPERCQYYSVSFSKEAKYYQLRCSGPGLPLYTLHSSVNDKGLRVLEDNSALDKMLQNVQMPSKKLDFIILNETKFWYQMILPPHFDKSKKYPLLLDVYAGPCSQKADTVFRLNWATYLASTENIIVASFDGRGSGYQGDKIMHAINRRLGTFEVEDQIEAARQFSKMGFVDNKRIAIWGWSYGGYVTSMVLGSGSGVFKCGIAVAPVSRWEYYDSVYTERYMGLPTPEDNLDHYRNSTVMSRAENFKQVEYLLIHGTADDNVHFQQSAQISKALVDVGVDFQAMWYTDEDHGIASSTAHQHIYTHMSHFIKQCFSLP
Protocol: as §1
(§4) Among the-known prolyl-specific serine oligopeptidase family members, the most closely related enzyme to FAPα is DPP-IV. Since active DPP-IV is found in plasma and on many different cell types, optimization of the relative (optional) selectivity of prodrug peptidics for FAPα compared to DPP-IV is necessary to reduce undesirable conversion of the prodrug at sites other than the tumor (e.g., in the plasma). To identify peptides specific for FAPα, cleavage of MNA-coupled peptides by FAPα was compared to the ability of DPP-IV to cleave the same peptide conjugates.

[7] = biological target: T5, FAPα (Homo sapiens, UniProt Q12884); assay: Cleavage specificity of MNA-peptide conjugates, FAPα; assay type: biochemical; details: release of free MNA
T5 sequence (Q12884 1-760): T1 sequence (Q12884 1-760)
Protocol: as §1, §4

| Structure (SMILES) | Kcat [1] [s⁻¹] | Km [1] [µM] | other results |
| --- | --- | --- | --- |
| COc1cc(NC(=O)[C@@H]2CCCN2C(=O)[C@@H](N)CC[S+](C)[O-])cc2ccccc12 (stereo partly drawn) [Met(O)-Pro-MNA] | 26.9 | 378 |  |
| NCCCC[C@H](N)C(=O)N1CCC[C@H]1C(=O)Nc1ccc2c(C(F)(F)F)cc(=O)oc2c1 [Lys-Pro-7-amino-4-trifluoromethyl coumarin] (H-Lys-Pro-{AFC}) |  |  | cleavage by FAPα dimers [2]: able to cleave |
| COc1cc(NC(=O)[C@@H]2CCCN2C(=O)[C@@H]2C[C@@H](O)CN2)cc2ccccc12 [trans-Hyp-Pro-MNA] | 37.9 | 254 |  |
| NCC(=O)N1CCC[C@H]1C(=O)Nc1ccc2c(C(F)(F)F)cc(=O)oc2c1 [Gly-Pro-7-amino-4-trifluoromethyl coumarin] (H-Gly-Pro-{AFC}) |  |  | cleavage by FAPα dimers [2]: able to cleave |
| COc1cccc2c1C(=O)c1c(O)c3c(c(O)c1C2=O)CC(O)(C(=O)CO)CC3OC1CC(NC(=O)C2CCCN2C(=O)CNC(=O)C(C)NC(=O)C2CCCN2C(=O)OCc2ccccc2)C(O)C(C)O1 (stereo not drawn) [ZPAGP-Dox, N-Cbz-Pro-Ala-Gly-Pro-Doxorubicin] |  |  | Cleavage by FAP [3]: >95%; conversion of conjugate to free doxorubicin by parental HT1080 cell line [4]: Little or no detectable conversion; conversion of conjugate to free doxorubicin by HT1080 clone 33 [5]: 43% |
| COc1cc(NC(=O)C2CCCN2C(=O)C(N)CCCCN)cc2ccccc12 (stereo not drawn) [Lys-Pro-MNA] | 57.1 | 530 |  |
| COc1cc(NC(=O)[C@@H]2CCCN2C(=O)[C@@H](N)CO)cc2ccccc12 [Ser-Pro-MNA] | 28.3 | 872 |  |
| COc1cccc2c1C(=O)c1c(O)c3c(c(O)c1C2=O)CC(O)(C(=O)CO)CC3OC1CC(NC(=O)C2CCCN2C(=O)CNC(=O)C(C)NC(=O)C2CCCN2C(=O)OCC2c3ccccc3-c3ccccc32)C(O)C(C)O1 (stereo not drawn) [Fmoc-Pro-Ala-Gly-, Fmoc-Pro-Ala-Gly-Pro-Dox] |  |  | Cleavage by FAP [3]: >95% |
| COc1cc(NC(=O)[C@@H]2CCCN2C(=O)[C@@H](N)CCCNC(=N)N)cc2ccccc12 [Arg-Pro-MNA] | 50.6 | 278 |  |
| COc1cc(NC(=O)C2CCCN2C(=O)C(C)N)cc2ccccc12 (stereo not drawn) [Ala-Pro-MNA] | 35.7 | 267 | Cleavage specificity DPP IV [6]: +; Cleavage specificity FAP [7]: + |
| C[C@H](N)C(=O)N1CCC[C@H]1C(=O)Nc1ccc2c(C(F)(F)F)cc(=O)oc2c1 [Ala-Pro-7-amino-4-trifluoromethyl coumarin] (H-Ala-Pro-{AFC}) |  |  | cleavage by FAPα dimers [2]: able to cleave |
| COc1cc(NC(=O)[C@@H]2CCCN2C(=O)[C@@H]2CCCN2)cc2ccccc12 [Pro-Pro-MNA, Pro-Pro-4-methoxy-β-naphthylamide] | 49.5 | 154 |  |
| COc1cc(NC(=O)C2CCCN2C(=O)CNC(=O)C(C)NC(=O)C2CCCN2C(=O)OCc2ccccc2)cc2ccccc12 (stereo not drawn) [Z-Pro-Ala-Gly-Pro-MNA] (Cbz-PAGP-{NH(4-MeO-2-naphthyl)}; configuration not given here) |  |  | Cleavage specificity DPP IV [6]: −; Cleavage specificity FAP [7]: + |
| COc1cccc2c1C(=O)c1c(O)c3c(c(O)c1C2=O)CC(O)(C(=O)CO)CC3OC1CC(NC(=O)C2CCCN2C(=O)C(N)C2CCCCC2)C(O)C(C)O1 (stereo not drawn) [H-Chg-, H-Chg-Pro-Dox] |  |  | Cleavage by FAP [3]: >95% |
| COc1cc(NC(=O)[C@@H]2CCCN2C(=O)[C@@H](N)C2CCCCC2)cc2ccccc12 [Chg-Pro-MNA] | 53.7 | 75 |  |
| COc1cc(NC(=O)[C@@H]2CCCN2C(=O)[C@@H](N)CCCCO)cc2ccccc12 [Hyn-Pro-MNA] | 27.4 | 69 |  |
| COc1cc(NC(=O)[C@@H]2CCCN2C(=O)[C@@H](N)CCSC)cc2ccccc12 [Met-Pro-MNA] | 27.9 | 127 |  |
| COc1cc(NC(=O)C2CCCN2C(=O)CNC(=O)OCc2ccccc2)cc2ccccc12 (stereo not drawn) [Z-Gly-Pro-MNA] |  |  | Cleavage specificity DPP IV [6]: −; Cleavage specificity FAP [7]: + |
| COc1cccc2c1C(=O)c1c(O)c3c(c(O)c1C2=O)CC(O)(C(=O)CO)CC3OC1CC(NC(=O)C2CCCN2C(=O)CNC(=O)C(C)NC(=O)C2CCCN2)C(O)C(C)O1 (stereo not drawn) [H-Pro-Ala-Gly-, H-Pro-Ala-Gly-Pro-Dox] |  |  | Cleavage by FAP [3]: ca. 11% |
| COc1cccc2c1C(=O)c1c(O)c3c(c(O)c1C2=O)C[C@@](O)(C(=O)CO)C[C@@H]3O[C@H]1C[C@H](NC(=O)[C@@H]2CCCN2C(=O)CNC(=O)OCc2ccccc2)[C@H](O)[C@H](C)O1 [ZGP-Dox, N-Cbz-Gly-Pro-Doxorubicin] |  |  | conversion of conjugate to free doxorubicin after incubation with purified FAPmCD8 fusion protein ([3]; 37° C., 1 day, approximately 20 ng FAPmCD8, Hepes-buffered saline pH 7.4, HPLC (FIG. 1)): could be converted to free doxorubicin; Cleavage by FAP [3]: >95%; conversion of conjugate to free doxorubicin by parental HT1080 cell line [4]: 9%; conversion of conjugate to free doxorubicin by HT1080 clone 33 [5]: 81% |
| COc1cc(NC(=O)[C@@H]2CCCN2C(=O)[C@@H](N)C(C)C)cc2ccccc12 [Val-Pro-MNA] | 27.7 | 95 |  |
| COc1cc(NC(=O)[C@@H]2CCCN2C(=O)[C@@H](N)CCC(N)=O)cc2ccccc12 [Gln-Pro-MNA] | 40.5 | 273 |  |
| CC[C@H](C)[C@H](N)C(=O)N1CCC[C@H]1C(=O)Nc1cc(OC)c2ccccc2c1 [Ile-Pro-MNA] | 12.6 | 43 |  |
